{"source": "patent US20260207717A1", "about": "“METHODS FOR TREATING INFANTILE-ONSET POMPE DISEASE IN PEDIATRIC PATIENTS” (Amicus Therapeutics, Inc., priority 2022, published 2026)", "key": {"CIMPR [1]": {"biological_target": "T1, CIMPR (Homo sapiens, UniProt P11717)", "T1 sequence (P11717 41-2491, species assumed)": "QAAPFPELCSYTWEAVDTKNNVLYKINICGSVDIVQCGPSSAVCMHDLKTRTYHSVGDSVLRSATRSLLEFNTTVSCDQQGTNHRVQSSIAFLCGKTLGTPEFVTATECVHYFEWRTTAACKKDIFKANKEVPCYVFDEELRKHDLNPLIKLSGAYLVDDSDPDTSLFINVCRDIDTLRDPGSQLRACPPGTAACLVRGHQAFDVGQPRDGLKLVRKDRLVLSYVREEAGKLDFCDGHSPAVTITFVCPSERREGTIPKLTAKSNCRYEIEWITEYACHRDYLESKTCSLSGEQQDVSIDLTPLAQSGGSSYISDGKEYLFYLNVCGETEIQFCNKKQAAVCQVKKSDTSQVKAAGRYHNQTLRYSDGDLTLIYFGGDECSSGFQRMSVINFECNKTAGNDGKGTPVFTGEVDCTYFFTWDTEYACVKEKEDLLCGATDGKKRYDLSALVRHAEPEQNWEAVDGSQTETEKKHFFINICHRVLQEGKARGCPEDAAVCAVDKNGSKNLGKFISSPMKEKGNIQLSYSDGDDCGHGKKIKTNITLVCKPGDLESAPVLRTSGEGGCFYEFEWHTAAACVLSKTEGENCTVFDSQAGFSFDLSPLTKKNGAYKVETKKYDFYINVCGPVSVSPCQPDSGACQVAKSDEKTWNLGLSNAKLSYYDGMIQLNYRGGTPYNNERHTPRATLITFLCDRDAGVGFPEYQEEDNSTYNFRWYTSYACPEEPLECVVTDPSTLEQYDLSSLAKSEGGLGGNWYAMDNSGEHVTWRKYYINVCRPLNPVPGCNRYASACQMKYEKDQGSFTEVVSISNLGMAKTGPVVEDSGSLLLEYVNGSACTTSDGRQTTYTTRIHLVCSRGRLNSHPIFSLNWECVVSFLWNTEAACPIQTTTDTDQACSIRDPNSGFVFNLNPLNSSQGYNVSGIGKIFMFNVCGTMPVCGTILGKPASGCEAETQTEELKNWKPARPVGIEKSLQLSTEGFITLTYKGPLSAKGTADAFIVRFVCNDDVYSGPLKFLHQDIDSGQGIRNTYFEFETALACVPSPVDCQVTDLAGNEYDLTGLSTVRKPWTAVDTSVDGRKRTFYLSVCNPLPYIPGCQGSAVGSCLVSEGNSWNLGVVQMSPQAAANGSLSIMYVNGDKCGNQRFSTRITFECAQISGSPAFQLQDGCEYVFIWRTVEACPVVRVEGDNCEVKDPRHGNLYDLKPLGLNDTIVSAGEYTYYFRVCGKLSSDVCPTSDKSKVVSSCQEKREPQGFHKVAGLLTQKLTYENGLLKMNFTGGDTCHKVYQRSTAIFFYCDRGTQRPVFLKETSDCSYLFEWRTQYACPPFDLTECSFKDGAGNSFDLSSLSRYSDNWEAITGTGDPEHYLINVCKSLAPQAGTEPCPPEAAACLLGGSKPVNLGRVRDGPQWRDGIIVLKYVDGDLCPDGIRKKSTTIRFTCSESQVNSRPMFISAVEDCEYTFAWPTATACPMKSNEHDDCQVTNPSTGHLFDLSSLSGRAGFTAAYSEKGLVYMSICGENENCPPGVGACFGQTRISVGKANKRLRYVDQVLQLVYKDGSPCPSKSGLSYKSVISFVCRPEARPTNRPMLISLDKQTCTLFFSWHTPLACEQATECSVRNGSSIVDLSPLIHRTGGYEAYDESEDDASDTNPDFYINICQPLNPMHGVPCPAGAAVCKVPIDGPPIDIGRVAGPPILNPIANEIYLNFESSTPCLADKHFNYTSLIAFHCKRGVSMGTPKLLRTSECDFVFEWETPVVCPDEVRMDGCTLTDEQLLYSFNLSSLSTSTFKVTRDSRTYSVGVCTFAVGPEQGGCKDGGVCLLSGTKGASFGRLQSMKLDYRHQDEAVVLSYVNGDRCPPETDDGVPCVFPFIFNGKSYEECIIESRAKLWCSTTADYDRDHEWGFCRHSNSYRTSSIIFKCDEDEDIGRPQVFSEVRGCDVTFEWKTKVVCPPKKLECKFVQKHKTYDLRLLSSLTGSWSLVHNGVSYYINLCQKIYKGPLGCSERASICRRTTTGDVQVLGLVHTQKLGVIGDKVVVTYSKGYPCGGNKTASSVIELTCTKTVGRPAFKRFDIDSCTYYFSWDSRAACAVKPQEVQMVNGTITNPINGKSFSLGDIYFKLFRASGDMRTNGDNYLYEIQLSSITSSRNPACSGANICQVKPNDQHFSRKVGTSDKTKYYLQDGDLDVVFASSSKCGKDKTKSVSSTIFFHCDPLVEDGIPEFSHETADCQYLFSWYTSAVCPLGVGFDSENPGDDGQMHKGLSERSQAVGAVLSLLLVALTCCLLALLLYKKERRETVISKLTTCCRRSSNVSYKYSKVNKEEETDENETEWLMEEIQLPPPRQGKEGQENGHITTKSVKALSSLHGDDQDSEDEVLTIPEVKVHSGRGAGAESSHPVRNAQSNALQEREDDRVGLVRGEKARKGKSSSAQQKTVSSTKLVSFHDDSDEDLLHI", "experiment": "CIMPR affinity chromatography (bound vs unbound rhGAA by GAA activity)", "format": "binding", "from_the_text": "Multiple batches of the rhGAA according to the disclosure were produced in shake flasks and in perfusion bioreactors using CHO cell line GA-ATB200, the product of which is referred to as “ATB200.” Weak anion exchange (“WAX”) liquid chromatography was used to fractionate ATB200 rhGAA according to terminal phosphate and sialic acid. Elution profiles were generated by eluting the ERT with increasing amount of salt. The profiles were monitored by UV (A280 nm).\nTo evaluate the ability of the conventional rhGAAs in MYOZYME® and LUMIZYME® to interact with the CIMPR, the two conventional rhGAA preparations were injected onto a CIMPR affinity column (which binds rhGAA having M6P groups) and the flow through collected. The bound material was eluted with a free M6 gradient. Fractions were collected in 96-well plate and GAA activity assayed by 4MU-α-glucosidase substrate. The relative amounts of unbound (flow through) and bound (M6P eluted) rhGAA were determined based on GAA activity and reported as the fraction of total enzyme. […] Indeed, only 27% of the rhGAA in MYOZYME® and 22% of the rhGAA in LUMIZYME® contained M6P that can be productive to target it to the CIMPR on muscle cells."}, "[2]": {"system": "single fibers isolated from the white gastrocnemius of Gaa KO mice", "experiment": "Single fiber analysis (LAMP1/LC3 co-immunofluorescence)", "format": "in vivo", "from_the_text": "FIG. 17 depicts co-immunofluorescent staining of LAMP1 (green) (see for example, “B”) and LC3 (red) (see, for example, “A”) in single fibers isolated from the white gastrocnemius of Gaa KO mice treated with a vehicle, alglucosidase alfa, or ATB200. “C” depicts clearance of autophagic debris and absence of enlarged lysosome. A minimum of 30 fibers were examined from each animal.\nAs a result, a significant portion of muscle fibers analyzed (36-60%) from ATB200-treated mice appeared normal or near-normal."}, "CIMPR [3]": {"biological_target": "T1, CIMPR", "experiment": "CIMPR plate binding assay", "procedure": "In addition to having a greater percentage of rhGAA that can bind to the CIMPR, it is important to understand the quality of that interaction. LUMIZYME® and ATB200 receptor binding was determined using a CIMPR plate binding assay. Briefly, CIMPR-coated plates were used to capture GAA. Varying concentrations of rhGAA were applied to the immobilized receptor and unbound rhGAA was washed off. The amount of remaining rhGAA was determined by GAA activity. […] For LUMIZYME®, there is on average only 10% of molecules having a bis-phosphorylated N-glycan. In contrast, on average every rhGAA molecule in ATB200 has at least one bis-phosphorylated N-glycan.\nN-glycan analysis via MALDI-TOF mass spectrometry confirmed that on average each ATB200 molecule contains at least one natural bis-M6P N-glycan structure."}, "[4]": {"experiment": "Thermostability assay using SYPRO Orange", "format": "physicochemical", "procedure": "The stability of ATB200 in acidic or neutral pH buffers was evaluated in a thermostability assay using SYPRO Orange, as the fluorescence of the dye increases when proteins denature. […] As summarized in Table 10, the addition of miglustat increased the melting temperature (Tm) of ATB200 by nearly 10° C."}, "[5]": {"system": "normal and Pompe fibroblast cell lines", "experiment": "Cellular uptake of rhGAA (internalized GAA by 4MU-α-Glucoside hydrolysis)", "format": "cell-based", "procedure": "The relative cellular uptake of ATB200 and LUMIZYME® rhGAA were compared using normal and Pompe fibroblast cell lines. Comparisons involved 5-100 nM of ATB200 according to the disclosure with 10-500 nM conventional rhGAA product LUMIZYME®. After 16-hr incubation, external rhGAA was inactivated with TRIS base and cells were washed 3-times with PBS prior to harvest. Internalized GAA measured by 4MU-α-Glucoside hydrolysis and was graphed relative to total cellular protein and the results appear in FIGS. 11A-11C.\nATB200 was also shown to be efficiently internalized into cells. […] ATB200 saturates cellular receptors at about 20 nM, while about 250 nM of LUMIZYME® is needed to saturate cellular receptors."}, "clinical": {"experiment": "clinical", "conditions": "human, in vivo", "procedure": "At 10Y7M of age, the blood of the patient was collected to gather pharmacokinetic (PK) data for their treatment that included weekly administration of 20 mg/kg ATB200 and 130 mg AT2221.\nBlood sampling of the patient was conducted to gather pharmacokinetic (PK) data for their treatment that included administration of 25 mg/kg ATB200 and 195 mg AT2221 biweekly.\nAt 12Y5M of age, the patient has been receiving ATB200 (20 mg/kg) and AT2221 (195 mg) biweekly for 1 year. […] At this time, the PK levels of both ATB200 and AT2221 were taken from the patient."}, "pediatric IOPD patient": {"system": "pediatric IOPD patient", "conditions": "for LVEF / LVMI: 2 D"}}, "note": "Entries after “also recorded” stand apart in the source; their conditions may differ. Like-named read-outs stand apart in the source and are kept apart here. Marks after values point to notes of the source that are not given here."}
{"substance": "ATB200: recombinant human acid α-glucosidase with a high content of N-glycans bearing mono-M6P and bis-M6P, produced from a GA-ATB200 cell line", "values": [{"measurement": "rhGAA that binds to the CIMPR (contains M6P)", "setting": "CIMPR [1]; fraction of total enzyme by GAA activity", "value": "more than 70%"}, {"measurement": "CIMPR receptor binding", "setting": "CIMPR [1]; purified ATB200 rhGAA from different production batches (FIG. 5)", "value": "≥ 70", "unit": "%"}, {"measurement": "Fibers with Autophagy Buildup", "setting": "[2]", "value": "40-64%*"}, {"measurement": "Fibers with Normal or Near-normal Appearance", "setting": "[2]", "value": "36-60%"}, {"measurement": "Lysosome Enlargement", "setting": "[2]", "value": "dramatically decreased lysosome size; also recorded: Dramatic size"}, {"measurement": "Kd", "setting": "CIMPR [3]; M6P receptor plate binding assays", "value": "2 to 4", "unit": "nM"}, {"measurement": "binding to CIMPR", "setting": "CIMPR [3]; compared with LUMIZYME (FIG. 10A)", "value": "significantly better"}, {"measurement": "Tm", "setting": "[4]; pH 5.2", "value": 67.3, "unit": "°C"}, {"measurement": "Tm", "setting": "[4]; pH 7.4", "value": 56.2, "unit": "°C"}, {"measurement": "increase of melting temperature (Tm) by addition of miglustat", "setting": "[4]; pH 7.4", "value": "~10", "unit": "°C"}, {"measurement": "Tm", "setting": "[4]; pH 7.4 + 10 μM miglustat", "value": 61.6, "unit": "°C"}, {"measurement": "Tm", "setting": "[4]; pH 7.4 + 30 μM miglustat", "value": 62.9, "unit": "°C"}, {"measurement": "Tm", "setting": "[4]; pH 7.4 + 100 μM miglustat", "value": 66.0, "unit": "°C"}, {"measurement": "concentration that saturates cellular receptors", "setting": "[5]; 16-hr incubation", "value": "about 20 nM"}, {"measurement": "internalization into normal and Pompe fibroblast cells", "setting": "[5]; compared with LUMIZYME", "value": "internalized to a greater degree"}, {"measurement": "uptake efficiency constant (Kuptake)", "setting": "[5]; extrapolated, FIG. 11C", "value": "2-3 nm"}, {"measurement": "AUC relative to adult percentiles", "setting": "clinical", "value": "within the adult 10th-90th percentile"}, {"measurement": "Cmax relative to adult percentiles", "setting": "clinical", "value": "within the adult 10th-90th percentile"}, {"measurement": "CK", "setting": "pediatric IOPD patient; AT2221 115 mg QW", "value": 1187, "unit": "U/L"}, {"measurement": "Pro-BNP", "setting": "pediatric IOPD patient; AT2221 115 mg QW", "value": 44.29, "unit": "pg/mL"}, {"measurement": "CK", "setting": "pediatric IOPD patient; ATB200 20 mg/kg QW", "value": 1834, "unit": "U/L"}, {"measurement": "Glc4", "setting": "pediatric IOPD patient; ATB200 20 mg/kg QW", "value": 41.53, "unit": "mmol/mol CRE"}, {"measurement": "Pro-BNP", "setting": "pediatric IOPD patient; ATB200 20 mg/kg QW", "value": 36.3, "unit": "pg/mL"}, {"measurement": "Pro-BNP", "setting": "pediatric IOPD patient; ATB200 20 mg/kg q2w", "value": 151.5, "unit": "pg/mL"}, {"measurement": "Glc4", "setting": "pediatric IOPD patient; ATB200 20 mg/kg, AT2221 130 mg", "value": 29.08, "unit": "mmol/mol CRE"}, {"measurement": "Pro-BNP", "setting": "pediatric IOPD patient; ATB200 20 mg/kg, AT2221 130 mg", "value": 45.52, "unit": "pg/mL"}, {"measurement": "Pro-BNP", "setting": "pediatric IOPD patient; ATB200 25 mg/kg QW", "value": 33.24, "unit": "pg/mL"}, {"measurement": "LVEF", "setting": "pediatric IOPD patient; ATB200 25 mg/kg QW", "value": 60.3, "unit": "%"}, {"measurement": "LVMI", "setting": "pediatric IOPD patient; ATB200 25 mg/kg QW", "value": 43.6, "unit": "g/m^2"}, {"measurement": "CK", "setting": "pediatric IOPD patient; ATB200 30 mg/kg, AT2221 130 mg", "value": 1146, "unit": "U/L"}, {"measurement": "Pro-BNP", "setting": "pediatric IOPD patient; ATB200 30 mg/kg, AT2221 130 mg", "value": 29.25, "unit": "pg/mL"}, {"measurement": "LVEF", "setting": "pediatric IOPD patient; ATB200 30 mg/kg, AT2221 130 mg", "value": 57, "unit": "%"}, {"measurement": "LVMI", "setting": "pediatric IOPD patient; ATB200 30 mg/kg, AT2221 130 mg", "value": 39.1, "unit": "g/m^2"}, {"measurement": "CK", "setting": "pediatric IOPD patient; Change AT2221 to 115 mg QW", "value": 1277, "unit": "U/L"}, {"measurement": "CK", "setting": "pediatric IOPD patient; Change ATB200 to 20 mg/kg QW", "value": 1674, "unit": "U/L"}, {"measurement": "Glc4", "setting": "pediatric IOPD patient; Change ATB200 to 20 mg/kg QW", "value": 50.74, "unit": "mmol/mol CRE"}, {"measurement": "LVEF", "setting": "pediatric IOPD patient; Change ATB200 to 20 mg/kg QW", "value": 61.1, "unit": "%"}, {"measurement": "LVMI", "setting": "pediatric IOPD patient; Change ATB200 to 20 mg/kg QW", "value": 38, "unit": "g/m^2"}, {"measurement": "CK", "setting": "pediatric IOPD patient; Change ATB200 to 25 mg/kg QW", "value": 1524, "unit": "U/L"}, {"measurement": "Glc4", "setting": "pediatric IOPD patient; Change ATB200 to 25 mg/kg QW", "value": 34.85, "unit": "mmol/mol CRE"}, {"measurement": "Pro-BNP", "setting": "pediatric IOPD patient; Change ATB200 to 25 mg/kg QW", "value": 231.9, "unit": "pg/mL"}, {"measurement": "CK", "setting": "pediatric IOPD patient; Change ATB200 to 30 mg/kg QW", "value": 1661, "unit": "U/L"}, {"measurement": "Glc4", "setting": "pediatric IOPD patient; Change ATB200 to 30 mg/kg QW", "value": 36.19, "unit": "mmol/mol CRE"}, {"measurement": "Pro-BNP", "setting": "pediatric IOPD patient; Change ATB200 to 30 mg/kg QW", "value": 180.6, "unit": "pg/mL"}, {"measurement": "CK", "setting": "pediatric IOPD patient; change to ATB200 20 mg/kg q2w", "value": "1393-1444 U/L"}, {"measurement": "Glc4", "setting": "pediatric IOPD patient; change to ATB200 20 mg/kg q2w", "value": 32.58, "unit": "mmol/mol CRE"}, {"measurement": "LVEF", "setting": "pediatric IOPD patient; change to ATB200 20 mg/kg q2w", "value": 41, "unit": "%"}, {"measurement": "LVMI", "setting": "pediatric IOPD patient; change to ATB200 20 mg/kg q2w", "value": 42, "unit": "g/m^2"}, {"measurement": "skin rash, dyspnea, cough, pale-like complexion", "setting": "pediatric IOPD patient; human, in vivo, 30 mg/kg", "value": "had not developed any skin rash, dyspnea, cough, or pale-like complexion"}]}
